≈ marks a conversion by molar mass, not a printed value. Like-named read-outs stand apart in the source and are kept apart here.
Legend:
E. feacium ATCC 700221 = assay: In vitro antibacterial activity assay (MIC, broth dilution); type: cell-based; settings: read-out: G+ bacteria MIC E. feacium ATCC 700221
From the text: (§1) The method used to indicate the activity of the compounds in this example is to record the minimum inhibitory concentration (MIC) of the compounds against bacteria. The specific experimental method is as follows:
(§2) 1. The bacterial liquid cultured from a single colony was taken, and diluted into autoclaved CAMHB broth in a ratio of 1:1000, and mixed well.
(§3) 2. The prepared drug solution was filtered through a sterile 0.22 µm syringe filter and placed in a sterile EP tube for later use.
(§4) 3. A 96-well plate was taken, and 20 µL of drug solution ([…]) was added to each well in the first column of the 96-well plate. Then, 180 µL of diluted bacterial liquid was added and mixed well (Perform 3 replicate rows for each drug).
(§5) The same process was performed for the hydrochloride drug.
(§6) 4. 100 μL of diluted bacterial liquid was added to each well in the remaining 11 columns of the 96-well plate. Drugs are the same as above.
(§7) 5. Serial dilution: 100 μL of liquid was taken from the first column to the second column, mixed well, then 100 μL of liquid was taken from the second column to the third column, mixed well, and so on, sequentially diluting down to the last column (column 12). After mixing column 12 well, 100 μL of liquid thereof was discarded. The drug concentration in each well was decreased by two-fold serially (the concentration in the first well is 40 μg/mL).
(§8) 6. Blank CAMHB broth without added bacteria liquid was added to 3 blank wells in the 96-well plate, as negative control.
(§9) 7. The diluted bacterial liquid was added to 3 blank wells in the 96-well plate, as positive control.
(§10) 8. Incubated at 37° C. for 16 hours.
(§11) 9. Results reading: the minimum inhibitory concentration is the minimum drug concentration at which no bacterial growth is visible to the naked eye and without turbidity.

S. aureus ATCC 43300 = assay: as above; type: cell-based; settings: Staphylococcus aureus
From the text: as §1, §2, §3, §4, §5, §6, §7, §8, §9, §10, §11

[1] = system: human Burkitt's lymphoma cell Raji; assay: In vitro anticancer activity test (MTT cell proliferation); type: cell-based
Method: (§12) The anticancer activity of the compounds was tested using an in vitro cancer cell tests. The specific test method is as follows:
(§13) 1. Cell recovery and culture method: the cryovial was taken out from the liquid nitrogen container firstly, soaked directly in 37° C. warm water, and shaked from time to time to let it thaw as soon as possible. Then, the cryovial was transferred to a clean bench, and the lid was open. The cell suspension was taken into a centrifuge tube using a rubber-tipped dropper and more than 10 times the culture medium was added, mixed well, and centrifuged at 50 g for 5 minutes. Then, the supernatant was discarded, complete culture medium containing 10% fetal bovine serum was added to resuspend the cells, the cells was counted, the cell density was adjusted, and then inoculated into a culture bottle. The culture bottle was placed in a cell culture incubator at 5% CO2 and 37° C. The complete culture medium was replaced once the next day and the culture was continued.
(§14) 2. Cell passaging method: adherent cells in the logarithmic growth phase were placed in a clean bench, the original culture medium was discarded, and washed three times with 1×PBS. An appropriate amount of 0.25% trypsin digestion solution was added to moisten the cells, and then the trypsin solution was aspirated. The cells were placed in a cell culture incubator at 5% CO2 and 37° C. for digestion for a suitable time, and observed under a microscope. When 90% of the cells become round, the cells were moved immediately to the clean bench and complete culture medium was added to terminate digestion. Then, the cells were dislodged by pipetting up and down with a rubber-tipped dropper to single cells. The cells were counted, and the cell density was adjusted. The cells were inoculated into a suitable culture bottle or dish, added enough complete culture medium, and placed in a cell culture incubator at 5% CO2 and 37° C. for static culture.
(§15) For suspension cells in the logarithmic phase, the original culture medium was directly centrifuged at 50 g for 5 minutes, the supernatant was discarded, and the cells were washed once with PBS and centrifuged. After discarding the supernatant, the complete culture medium was added and the cells were dispersed using a rubber-tipped dropper. The cells are counted, and the cell density was adjusted. The cells were inoculated into appropriate culture bottles or culture dishes, and sufficient complete culture medium was added, and the cells were cultured in a cell culture incubator at 5% CO2 and 37° C.
(§16) 3. Cell proliferation assay: cells in good state in logarithmic phase were taken and appropriate amount of the cells was inoculated into 96-well plates according to the cell passage treatment method, with each well containing 180 μL complete medium. After the cells growth was recovered and the number of cells in each well is 5000±500, a drug was added for treatment.
(§17) After drug treatment during the experimental time, MTT solution with a final concentration of 0.5 mg/mL was added to each well, and placed in a cell culture incubator at 5% CO2 and 37° C. to allow a fully reaction of MTT with cells. After 4 hours, the solution in the 96-well plate was discarded, 100 µL of DMSO was added, and shaked to dissolve the formazan precipitated at the bottom of the plate, and the absorbance value of samples was detected at a wavelength of 570 nm using a microplate reader. Calculation method of cell viability rate: […]

[2] = system: Staphylococcus aureus ATCC43300; assay: Resistance test of bacteria against compounds (serial induction, 21 days); type: cell-based; settings: start of resistance test, S. aureus ATCC43300
Method: This example provides a resistance test of bacteria against compounds, and the specific experimental method is as follows.
1. […] It was ensured that among the 6 final concentrations of the drug diluted into the wells, some were higher than the original MIC of the bacteria and some were lower than the original MIC of the bacteria.
2. Preparation of bacterial liquid: 10 mL of culture medium was taken and added to a sterilized plate using a pipette, then 100 µL of the above-mentioned passaged bacterial liquid was added, and mixed well for later use.
3. The above-mentioned diluted bacterial liquid was taken and added to a 96-well plate using a pipette, 180 μL per well, 3 wells per group, 6 groups in total. 20 μL of drug solution was added to each well (note: it is necessary to replace the pipette tip each time the drug is added), so that the final drug concentrations were […], respectively. The well with 200 μL of diluted bacterial liquid was used as the positive control well, and the well with 200 μL of culture medium was used as the negative control well.
The test object was Staphylococcus aureus (S. aureus).

[3] = system: human acute monocytic leukemia cell THP-1; assay: In vitro anticancer activity test (MTT cell proliferation); type: cell-based
Method: as §12, §13, §14, §15, §16, §17

[4] = system: human acute myeloid leukemia cell MOLM-13; assay: as above; type: cell-based
Method: as §12, §13, §14, §15, §16, §17

[5] = system: human liver cancer cell BLE-7402; assay: as above; type: cell-based
Method: as §12, §13, §14, §15, §16, §17

[6] = system: human renal cancer cell OS-RC-2; assay: as above; type: cell-based
Method: as §12, §13, §14, §15, §16, §17

[7] = system: human bladder transitional cell carcinoma cell T24; assay: as above; type: cell-based; settings: T-24
Method: as §12, §13, §14, §15

[8] = system: human epidermal carcinoma cell A431; assay: as above; type: cell-based; settings: A-431
Method: as §12, §13, §14, §15

[9] = system: Staphylococcus aureus ATCC43300; assay: Systemic blood infection animal model; type: in vivo, mice; settings: for number of colonies of liver and kidney: 3 times a day, 7 days
Method: (2) Sterile phosphate buffered saline (PBS) was used to prepare a 1×10^7 CFU/mL Staphylococcus aureus ATCC43300 bacterial suspension for later use; the drug dosage required for mice was calculated for each group, and solutions of Example 34 and solvent for gavage (400 or 200 μL of Tween 80 was mixed with Example 34, grinded with an agate mortar until it became transparent, and then 0.5% sodium carboxymethyl cellulose solution was added to reach the required concentration and volume of the test drug) were prepared for later use.
(3) Except for the blank group, 100 μL of the bacterial suspension prepared in step 2 was injected into the tail vein of each mouse.
(4) 2 hours after the challenge, the drugs prepared in step 2 were administered by oral gavage according to the groups, 3 times a day, 200 uL each time, with an interval of 8 hours, for a total of 7 days. Mice were administered by oral gavage with the drug solvent for the model group and the blank group.
(5) 8 h after the last administration, mice were euthanized by cervical dislocation, disinfected with 75% alcohol, and then necropsied under sterile conditions. The kidneys and livers were harvested, observed and photographed, and the weight was recorded.
(6) The kidneys and livers were placed in a sterile glass grinder and sterile PBS in a volume ten times the weight of the organs was added and grinded. The grinding solutions were taken out, 10-fold serially diluted, smeared to a TSA solid culture medium, and incubated at 37° C. for 16 hours, then the colonies were counted. The number of colonies of the organs was calculated to evaluate the therapeutic effect.

A. baumannii ATCC 17978 = assay: In vitro antibacterial activity assay (MIC, broth dilution); type: cell-based; settings: Acinetobacter baumannii, ATCC17978; Table 2; read-out: G- bacteria MIC A. baumannii ATCC 17978
From the text: as §1, §2, §3, §4, §5, §6, §7, §8, §9, §10, §11

E. coli ATCC 25922 = assay: as above; type: cell-based; settings: Escherichia coli, ATCC25922; Table 2; read-out: G- bacteria MIC E. coli ATCC 25922
From the text: as §1, §2, §3, §4, §5, §6, §7, §8, §9, §10, §11

P. aeruginosa ATCC 27853 = assay: as above; type: cell-based; settings: Pseudomonas aeruginosa, ATCC27853; Table 2; read-out: G- bacteria MIC P. aeruginosa ATCC 27853
From the text: as §1, §2, §3, §4, §5, §6, §7, §8, §9, §10, §11

For `O=C(O)c1cn(C2CC2)c2cc(-c3ccc(S(=O)(=O)NCCCl)cc3)c(F)cc2c1=O` [Example 15, 7-(4-(N-(2-chloroethyl)sulfamoyl)phenyl)-1-cyclopropyl-6-fluoro-4-oxo-1,4-dihydroquinolin-3-carboxylic acid], the MIC (E. feacium ATCC 700221) was > 8 µg/mL and the MIC (S. aureus ATCC 43300; ATCC43300, read-out: G+ bacteria MIC S. aureus ATCC 43300) was ≤ 0.1 µg/mL.
In the case of `Cc1c(-c2cnc(N)nc2)c(F)cc2c(=O)c(C(=O)O)cn(C3CC3)c12` [compound 1, reference compound], the IC50 [1] is reported as ≥ 40 µM.
In the case of `O=C(O)c1cn(C2CC2)c2c(Cl)c(-c3ccc(S(=O)(=O)NCCCC(F)(F)F)nc3)c(F)cc2c1=O` [Example 34, 8-chloro-1-cyclopropyl-6-fluoro-4-oxo-7-(6-(N-(4,4,4-trifluorobutyl)sulfamoyl)pyridin-3-yl)-1,4-dihydroquinolin-3-carboxylic acid], the “initial MIC compared with marketed drugs” value [2] is reported as “superior to the marketed drugs ciprofloxacin and vancomycin”, the IC50 [3] is reported as 1 to 10 µM and the IC50 [4] is reported as 1 to 10 µM. For the same molecule, the IC50 [5] was 1 to 10 µM, the IC50 [6] was 1 to 10 µM and the IC50 [7] was 1 to 10 µM. For the same molecule, the IC50 [8] was 1 to 10 µM, the “number of colonies of liver and kidney” value ([9]; 1 mg/kg oral gavage) was “significant statistical difference from the control group” and the “number of colonies of liver and kidney” value ([9]; 4 mg/kg oral gavage) was “good antibacterial effect”. For the same molecule, the “antibacterial effect in the liver and kidney (number of colonies of organs)” value ([9]; compared with the positive drug ciprofloxacin) was “very significant antibacterial effect”.
`COc1c(-c2ccc(NC(=O)C(F)(F)F)c(C#N)c2)c(F)cc2c(=O)c(C(=O)O)cn(C3CC3)c12` [Example 8, 7-(3-cyano-4-(2,2,2-trifluoroacetamido)phenyl)-1-cyclopropyl-6-fluoro-8-methoxy-4-oxo-1,4-dihydroquinolin-3-carboxylic acid] was tested, and the MIC (A. baumannii ATCC 17978) was 0.1 to 1 µg/mL (≈ 0.204 to 2.04 µM), the MIC (E. coli ATCC 25922) was ≤ 0.1 µg/mL and the MIC (E. feacium ATCC 700221) was 1 to 8 µg/mL (≈ 2.04 to 16.3 µM). The MIC (P. aeruginosa ATCC 27853) was 0.1 to 1 µg/mL (≈ 0.204 to 2.04 µM) and the MIC (S. aureus ATCC 43300; ATCC43300, Table 1, read-out: G+ bacteria MIC S. aureus ATCC 43300) was ≤ 0.1 µg/mL.
